Test results taken from PubChem BioAssay AID1963827 (Molecular Pharmacology Branch, DTP, NCI, 2024).

System: 994946-033-R-J1-PDC complex spheroid viability
Experiment: Anticancer human tumor 994946-033-R-J1-PDC patient-derived melanoma cell line growth inhibition [POLQ]
Settings: for IC50: curve of first compound; for viability, T/C: stronger effect = lower value
In short: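 Three-cell-type spheroids modelling solid tumor plus stroma served as the readout system; POL inhibitors were tested individually and in combination, concentration ranges set by clinical Cmax where known.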
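Note: spheroids exposed to drugs for 7 days.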
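Throughout, for viability, T/C: 100% = DMSO vehicle treated spheroids.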

For COc1cccc2c1C(=O)c1c(O)c3c(c(O)c1C2=O)CC(O)(C(=O)CO)CC3OC1CC(N)C(O)C(C)O1 (configuration not stated) + Cc1cccc(N(C)C(=O)C2C(O)CCN2c2nc(C)cc(C(F)(F)F)c2C#N)c1, the IC50 (second compound 0.0316 µM) was < 31.6 nM, the IC50 (second compound 0.1 µM) was < 31.6 nM and the IC50 (second compound 0.316 µM) was < 31.6 nM. For the same molecule, the IC50 (second compound 1 µM) was < 31.6 nM, the IC50 (second compound 3.16 µM) was < 31.6 nM and the IC50 (second compound 10 µM) was < 31.6 nM. It also gave a viability, T/C (second compound 0.0316 µM, first compound 0.0316 µM) of 31.8%, a viability, T/C (second compound 0.0316 µM, first compound 0.1 µM) of 10.5% and a viability, T/C (second compound 0.0316 µM, first compound 0.316 µM) of 2.24%. It also gave a viability, T/C (second compound 0.0316 µM, first compound 1 µM) of 1.98%, a viability, T/C (second compound 0.0316 µM, first compound 3.16 µM) of 2.99% and a viability, T/C (second compound 0.0316 µM, first compound 10 µM) of 0.53%. For the same molecule, the viability, T/C (second compound 0.1 µM, first compound 0.0316 µM) was 26.8%, the viability, T/C (second compound 0.1 µM, first compound 0.1 µM) was 6.95% and the viability, T/C (second compound 0.1 µM, first compound 0.316 µM) was 3.98%. The viability, T/C (second compound 0.1 µM, first compound 1 µM) was 0.54%, the viability, T/C (second compound 0.1 µM, first compound 3.16 µM) was 1.3% and the viability, T/C (second compound 0.1 µM, first compound 10 µM) was 1.07%. The viability, T/C (second compound 0.316 µM, first compound 0.0316 µM) was 22.5%, the viability, T/C (second compound 0.316 µM, first compound 0.1 µM) was 7.12% and the viability, T/C (second compound 0.316 µM, first compound 0.316 µM) was 3.03%. It also gave a viability, T/C (second compound 0.316 µM, first compound 1 µM) of 2.42%, a viability, T/C (second compound 0.316 µM, first compound 3.16 µM) of 1.56% and a viability, T/C (second compound 0.316 µM, first compound 10 µM) of 0.77%. For the same molecule, the viability, T/C (second compound 1 µM, first compound 0.0316 µM) was 47.9%, the viability, T/C (second compound 1 µM, first compound 0.1 µM) was 7.31% and the viability, T/C (second compound 1 µM, first compound 0.316 µM) was 1.73%. For the same molecule, the viability, T/C (second compound 1 µM, first compound 1 µM) was 2.31%, the viability, T/C (second compound 1 µM, first compound 3.16 µM) was 1.01% and the viability, T/C (second compound 1 µM, first compound 10 µM) was 0.51%. For the same molecule, the viability, T/C (second compound 3.16 µM, first compound 0.0316 µM) was 22.8%, the viability, T/C (second compound 3.16 µM, first compound 0.1 µM) was 7.88% and the viability, T/C (second compound 3.16 µM, first compound 0.316 µM) was 1.7%. For the same molecule, the viability, T/C (second compound 3.16 µM, first compound 1 µM) was 1.41%, the viability, T/C (second compound 3.16 µM, first compound 3.16 µM) was 1.39% and the viability, T/C (second compound 3.16 µM, first compound 10 µM) was 0.69%. The viability, T/C (second compound 10 µM, first compound 0.0316 µM) was 33.1%, the viability, T/C (second compound 10 µM, first compound 0.1 µM) was 8.28% and the viability, T/C (second compound 10 µM, first compound 0.316 µM) was 2.08%. The viability, T/C (second compound 10 µM, first compound 1 µM) was 1.32%, the viability, T/C (second compound 10 µM, first compound 3.16 µM) was 0.67% and the viability, T/C (second compound 10 µM, first compound 10 µM) was 0.65%.
